Test results as given in publication PMC5678437, “A new antagonist for CCR4 attenuates allergic lung inflammation in a mouse model of asthma” (Scientific Reports, 2017).
Like-named read-outs stand apart in the source and are kept apart here.

Tests used:
[1] = tested on: OVA-induced asthmatic mice; experiment: Airway mucus production (PAS staining) in OVA-induced asthmatic mice; type: in vivo, BALB/c mice; conditions: compound 8a 0.2, 1, 5 mg; budesonide 5 mg; vs vehicle treated group
Procedure: (§1) Male BALB/c 6 week old mice were purchased from the Experimental Animal Center of Zhejiang University. All mice were raised in a specific pathogen-free animal facility. All animal experiments were carried out according to the guidelines for the care and use of laboratory animals and were approved by the ethics committee of Zhejiang University and Peking University, China.
(§2) Mice were sensitized and challenged with chicken egg OVA (sigma-Aldrich, St Louis, MO, USA) as described in details previously. Briefly, after sensitized by intraperitoneal injection of 100 μl (80 μg) OVA in 100 μl alum (Pierce, Rockford, IL, USA) on days 0 and 14, mice were exposure to 1% OVA aerosols for 40 min on days 24–26. Control mice were injected intraperitoneally with saline and exposed to saline aerosols.
(§3) Compound 8a was dissolved in saline with DMSO (0.5%). Half an hour before each OVA challenge, the groups of mice treated with various doses of compound 8a (0.2, 1, 5 mg) inhaled aerosolized compound 8a for 45 min on days 24–26. Compound 8a aerosols were produced by using a Plexiglas chamber and ultrasonic nebulizer. […]
(§4) After sacrificed, the lungs were fixed in formalin overnight. […] Inflammation was scored according to published guidelines. And PAS-stained goblet cells in airway epithelium were quantified as described previously.

[2] = tested on: OVA-induced asthmatic mice; experiment: Lung histology (H&E) inflammation score in OVA-induced asthmatic mice; type: in vivo, BALB/c mice; conditions: 5 mg inhaled aerosol; vs OVA mice treated with vehicle
Procedure: as §1, §2, §3, §4

[3] = tested on: OVA-induced asthmatic mice; experiment: Airway hyperresponsiveness to aerosolized methacholine in OVA-induced asthmatic mice; type: in vivo, BALB/c mice; conditions: 5 mg inhaled aerosol, days 24-26; 24 h after final OVA challenge
Procedure: as §1, §2
(§5) Compound 8a was dissolved in saline with DMSO (0.5%). Half an hour before each OVA challenge, the groups of mice treated with various doses of compound 8a (0.2, 1, 5 mg) inhaled aerosolized compound 8a for 45 min on days 24–26. Compound 8a aerosols were produced by using a Plexiglas chamber and ultrasonic nebulizer. While the budesonide (BUD) group were administered with 5 mg budesonide, and the vehicle group were treated with compound-dissolved vehicle. The Saline was treated as the control.
Twenty-four hours after the last challenge, mice were anesthetized and tracheotomized with a cannula, then ventilated at a fixed breathing rate. Once being stabilized, mice were challenged via the airways with saline or increasing concentrations of Mch (1, 2, 4, 8, 16 mg/ml) by nebulization. Airway resistance was measured by FinePointe Series RC Sites (Buxco Research System). Changes in airway resistance were calculated for each Mch concentration.

[4] = tested on: IL-4; experiment: IL-4 in lung homogenate by ELISA in OVA-induced asthmatic mice; type: in vivo, BALB/c mice; conditions: 5 mg inhaled aerosol; after OVA challenge
Procedure: as §1, §2
Compound 8a was dissolved in saline with DMSO (0.5%). Half an hour before each OVA challenge, the groups of mice treated with various doses of compound 8a (0.2, 1, 5 mg) inhaled aerosolized compound 8a for 45 min on days 24–26. […]
Twenty-four hours after the last challenge, lungs were removed from control or asthmatic mice, and they were cut into pieces and homogenized in 500 μl PBS, centrifuged (2000 rpm, 10 min) and the supernatant collected. The concentration of IL-4 in lungs were determined by ELISA kit (Sensitivity: 2 pg/ml, R&D Systems, Minneap-olis, MN, USA) following the manufacturer’s protocol.

[5] = tested on: OVA-induced asthmatic mice; experiment: BALF total cell and cell differential counts in OVA-induced asthmatic mice; type: in vivo, BALB/c mice
Procedure: as §1, §2, §5
Twenty-four hours after the last exposure, collection of BALF and cell count was performed as previously described. Briefly, lavage was performed by instilling 0.4 ml PBS into lungs and with drawn to collect the cells three times. Total BALF cells were counted. After be centrifuged, the remaining cells was spun onto glass slides, and stained with Wright–Giemsa stain. Differential counts were evaluated by counting 400 total cells.

[6] = target: T1, CCR4 (Homo sapiens, UniProt P51679); experiment: Radio ligand competition binding assay on CCR4 cell membrane extract; conditions: HEK293 CCR4 cell membrane extract, 4 °C, 24 h
T1 construct: expressed in transfected cells; cell membrane extract
T1 sequence (P51679 1-360): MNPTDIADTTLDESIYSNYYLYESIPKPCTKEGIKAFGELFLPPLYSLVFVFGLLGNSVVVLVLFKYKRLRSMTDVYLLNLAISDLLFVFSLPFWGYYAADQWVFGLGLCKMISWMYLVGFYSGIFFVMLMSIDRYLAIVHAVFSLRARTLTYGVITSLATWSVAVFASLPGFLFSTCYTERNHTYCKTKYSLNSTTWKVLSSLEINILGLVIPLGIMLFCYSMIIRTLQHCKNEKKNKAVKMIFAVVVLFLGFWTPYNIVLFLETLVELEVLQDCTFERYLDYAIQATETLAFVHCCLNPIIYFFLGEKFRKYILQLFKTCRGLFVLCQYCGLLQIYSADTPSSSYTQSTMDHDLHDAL
Procedure: A HEK293 cell line stably expressing CCR4-enhanced green fluorescent protein was established. CCL22, CCL17 and C27 were labeled with [^125I]. For competition binding assays, equivalent quantities of cell membrane extract and [^125I]-CCL22, [^125I]-CCL17 and [^125I]-C27 were incubated with varying quantities of unlabeled compound 8a, compound 6b and compound 22. All reactions were incubated at 4 °C for 24 h. After the binding step, 25% polyethylene glycol (6000–8000) and 0.5% human g-globulin were added, and the mixture was incubated at room temperature for 15 min. Binding complexes were obtained by centrifuging the mixture at 3500 rpm for 20 min at 4 °C, and radioactivity was evaluated. Results were corrected for “blank” background radiation, defined as the radioactivity precipitated by polyethylene glycol–g-globulin from the same amount of radioactive ligand in binding buffer in the absence of cells.

[7] = 5 mg inhaled aerosol, compared with vehicle treated group
[8] = compound 8a 0.2, 1, 5 mg, budesonide 5 mg, inhaled aerosol

IC50 ([6]; [125I]-C27, read-out: IC50, competitive binding with C27 to CCR4) | IC50 ([6]; [125I]-CCL17, read-out: IC50, competitive binding with CCL17 to CCR4) | IC50 ([6]; [125I]-CCL22, read-out: IC50, competitive binding with CCL22 to CCR4) | Compound | airway mucus production (PAS-stained cells) [1] | peribronchial and perivascular inflammation (H&E histology) [2] | AHR to methacholine compared with asthmatic mice treated with vehicle [3] | expression of IL-4 in lungs (ELISA) [4] | absolute number of eosinophils in BALF [5, 7] | absolute number of lymphocytes in BALF [5, 7] | number of macrophages in BALF [5, 8] | number of neutrophils in BALF [5, 8]
– | – | – | CCCC1O[C@@H]2C[C@H]3[C@@H]4CCC5=CC(=O)C=C[C@]5(C)[C@H]4[C@@H](O)C[C@]3(C)[C@]2(C(=O)CO)O1 (some centres unmarked) [budesonide, reference compound] | no effect | significantly attenuated | significantly lower | notably decreased | significantly decreased | significantly decreased | neither compound 8a nor budesonide affect | neither compound 8a nor budesonide affect
489 nM | 104 nM | 360 nM | O=C([C@@H]1CSCCN1)N1CCN(c2nc(NCc3ccc(Cl)cc3Cl)c3cccnc3n2)CC1 [compound 6b, reference compound] | – | – | – | – | – | – | – | –
